This test addresses T1, CRTH2 receptor (Homo sapiens, UniProt Q9Y5Y4).
T1 construct: expressed in transfected cells; host or cells: HEK (human embryonic kidney) cells, membranes
T1 sequence (Q9Y5Y4 1-395): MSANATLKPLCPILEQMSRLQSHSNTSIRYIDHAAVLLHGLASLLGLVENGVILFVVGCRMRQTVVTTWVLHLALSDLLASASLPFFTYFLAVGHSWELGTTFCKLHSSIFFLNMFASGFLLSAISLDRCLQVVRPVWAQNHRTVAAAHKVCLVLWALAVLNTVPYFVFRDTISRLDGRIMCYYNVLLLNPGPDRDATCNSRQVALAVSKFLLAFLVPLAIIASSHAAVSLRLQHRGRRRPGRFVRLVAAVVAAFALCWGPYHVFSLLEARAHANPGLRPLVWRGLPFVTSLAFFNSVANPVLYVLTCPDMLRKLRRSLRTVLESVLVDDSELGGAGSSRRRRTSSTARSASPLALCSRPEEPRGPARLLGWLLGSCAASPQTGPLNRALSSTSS
As to the kind of experiment: CRTH2 radioligand binding assay ([3H]-PGD2 displacement, SPA). Conditions: HEK cell membranes expressing the CRTH2 receptor, 1 nM [3H]-PGD2; Ki from IC50 by Cheng-Prusoff equation. As to the method:
Compounds of the invention were tested using the following biological test method to determine their ability to displace PGD2 from the CRTH2 receptor.
Radioligand Binding Assay
The receptor binding assay is performed in a final volume of 200 μL binding buffer [10 mM BES (pH 7.4), 1 mM EDTA, 10 mM manganese chloride, 0.01% BSA] and 1 nM [^3H]-PGD2 (Amersham Biosciences UK Ltd). Ligands are added in assay buffer containing a constant amount of DMSO (1% by volume). Total binding is determined using 1% by volume of DMSO in assay buffer and non-specific binding is determined using 10 μM of unlabeled PGD2 (Sigma). Human embryonic kidney (HEK) cell membranes (3.5 μg) expressing the CRTH2 receptor are incubated with 1.5 mg wheatgerm agglutinin SPA beads and 1 nM [^3H]-PGD2 (Amersham Biosciences UK Ltd) and the mixture incubated for 3 hours at room temperature. Bound [^3H]-PGD2 is detected using a Microbeta TRILUX liquid scintillation counter (Perkin Elmer). Compound IC50 value is determined using a 6-point dose response curve in duplicate with a semi-log compound dilution series. IC50 calculations are performed using Excel and XLfit (Microsoft), and this value is used to determine a Ki value for the test compound using the Cheng-Prusoff equation.

On to `Cc1c(CC(=O)O)c2ccc(F)cn2c1Sc1ccc(-c2cnn(C)c2)cc1` [Example 4, {6-fluoro-2-methyl-3-[4-(1-methyl-1H-pyrazol-4-yl)phenylsulfanyl]indolizin-1-yl}acetic acid], for which affinity was put at a Ki of 19 nM. In other words, the double-digit nanomolar range.
For `Cc1c(CC(=O)O)c2ccc(F)cn2c1Sc1ccc(S(=O)(=O)N2CCOCC2)cc1F` [Example 1, {6-fluoro-3-[2-fluoro-4-(morpholine-4-sulfonyl)phenylsulfanyl]-2-methylindolizin-1-yl}acetic acid] the value was 0.5 nM.

(Values after patent US20100093751A1, “Indolizineacetic Acids and Their Therapeutic Use as Ligands of the CRTH2 Receptor” (priority 2006, published 2010).)
